According to ChEMBL document CHEMBL4118211, “Isoxazole-tethered diarylheptanoid analogs: Discovery of a new drug-like PAR2 antagonist” (Bioorg Med Chem Lett, 2018):
pIC50: −log10 of the molar value. ≈ marks a conversion by molar mass, not a printed value.

What was measured:
[1] = target: T1, Proteinase-activated receptor 2 (Homo sapiens, UniProt P55085); experiment: Antagonist activity at PAR2 in human 1321N1 cells assessed as inhibition of trypsin-induced intracellular calcium flux pretreated for 60 mins followed by trypsin addition by Fluo-8 NW dye based FLIPR assay; format: functional, cell-based
T1 sequence (P55085 whole entry): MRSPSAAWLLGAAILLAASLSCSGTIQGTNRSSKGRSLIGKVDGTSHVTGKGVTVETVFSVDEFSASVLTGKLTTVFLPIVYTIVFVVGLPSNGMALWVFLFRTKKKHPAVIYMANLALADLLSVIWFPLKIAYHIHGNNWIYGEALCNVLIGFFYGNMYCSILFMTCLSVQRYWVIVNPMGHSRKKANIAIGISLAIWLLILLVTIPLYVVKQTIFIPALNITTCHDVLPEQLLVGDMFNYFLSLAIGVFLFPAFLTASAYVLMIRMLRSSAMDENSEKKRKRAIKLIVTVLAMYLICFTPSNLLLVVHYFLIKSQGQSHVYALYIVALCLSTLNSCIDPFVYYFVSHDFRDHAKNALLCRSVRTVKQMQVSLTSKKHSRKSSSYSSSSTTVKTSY

[2] = Kinetic solubility of the compound in phosphate buffer at pH 7.4 at 0.0098 to 10 mM by turbidometric method; format: physicochemical; settings: read-out: Kinetic_solubility
HepG2 = experiment: Cytotoxicity against human HepG2 cells assessed as reduction in cell viability after 24 hrs by MTT assay; format: cell-based; settings: HepG2, 24 h
[3] = Metabolic stability in human liver microsomes assessed as parent compound remaining at 1 uM preincubated for 5 mins followed by NADPH addition measured after 30 mins by LC-MS/MS analysis; format: ADME, microsome; settings: read-out: Stability
[4] = target: Amyloid-beta precursor protein (Homo sapiens, UniProt P05067); experiment: Displacement of [125I]IMPY from fibrillar amyloid beta 42 (unknown origin) after 3 hrs
[5] = Permeability from basolateral to apical side in human Caco2 cells at 5 uM after 90 mins; format: ADME, cell-based; settings: Caco-2, read-out: permeability
[6] = Permeability from apical to basolateral side in human Caco2 cells at 5 uM after 90 mins; format: ADME, cell-based; settings: Caco-2, read-out: permeability
[7] = target: Proteinase-activated receptor 2 (Homo sapiens) (UniProt P55085); experiment: Antagonist activity at PAR2 in human HEK293 cells assessed as inhibition of trypsin-induced intracellular calcium flux at 10 uM pretreated for 15 mins followed by trypsin addition by Fluo-8 dye based fluorescence assay relative to control; format: functional, cell-based
[8] = target: Proteinase-activated receptor 2 (Homo sapiens) (UniProt P55085); experiment: Antagonist activity at PAR2 in human HEK293 cells assessed as trypsin-induced intracellular calcium flux at 3 uM pretreated for 15 mins followed by trypsin addition by Fluo-8 dye based fluorescence assay relative to control; format: functional, cell-based; set-up: scale not given: the % may be the effect or the level left
[9] = target: Proteinase-activated receptor 2 (Homo sapiens) (UniProt P55085); experiment: Antagonist activity at PAR2 in human HEK293 cells assessed as trypsin-induced intracellular calcium flux at 10 uM pretreated for 15 mins followed by trypsin addition by Fluo-8 dye based fluorescence assay relative to control; format: functional, cell-based; set-up: scale not given: the % may be the effect or the level left
[10] = target: Proteinase-activated receptor 2 (Homo sapiens) (UniProt P55085); experiment: Antagonist activity at PAR2 in human HEK293 cells assessed as inhibition of trypsin-induced intracellular calcium flux at 30 uM pretreated for 15 mins followed by trypsin addition by Fluo-8 dye based fluorescence assay relative to control; format: functional, cell-based
[11] = target: Proteinase-activated receptor 2 (Homo sapiens) (UniProt P55085); experiment: Antagonist activity at PAR2 in human HEK293 cells assessed as trypsin-induced intracellular calcium flux at 1 uM pretreated for 15 mins followed by trypsin addition by Fluo-8 dye based fluorescence assay relative to control; format: functional, cell-based; set-up: scale not given: the % may be the effect or the level left
[12] = target: Proteinase-activated receptor 2 (Homo sapiens) (UniProt P55085); experiment: Antagonist activity at PAR2 in human HEK293 cells assessed as trypsin-induced intracellular calcium flux at 0.1 uM pretreated for 15 mins followed by trypsin addition by Fluo-8 dye based fluorescence assay relative to control; format: functional, cell-based; set-up: scale not given: the % may be the effect or the level left
[13] = target: Proteinase-activated receptor 2 (Homo sapiens) (UniProt P55085); experiment: Antagonist activity at PAR2 in human HEK293 cells assessed as trypsin-induced intracellular calcium flux at 0.01 uM pretreated for 15 mins followed by trypsin addition by Fluo-8 dye based fluorescence assay relative to control; format: functional, cell-based; set-up: scale not given: the % may be the effect or the level left
[14] = target: T1, Proteinase-activated receptor 2; experiment: Antagonist activity at PAR2 in human HEK293 cells assessed as inhibition of trypsin-induced intracellular calcium flux pretreated for 15 mins followed by trypsin addition by Fluo-8 dye based fluorescence assay; format: functional, cell-based
[15] = target: Proteinase-activated receptor 2 (Homo sapiens) (UniProt P55085); experiment: Antagonist activity at PAR2 in human HEK293 cells assessed as trypsin-induced intracellular calcium flux at 100 uM pretreated for 15 mins followed by trypsin addition by Fluo-8 dye based fluorescence assay relative to control; format: functional, cell-based; set-up: scale not given: the % may be the effect or the level left
[16] = target: Proteinase-activated receptor 2 (Homo sapiens) (UniProt P55085); experiment: Antagonist activity at PAR2 in human HEK293 cells assessed as trypsin-induced intracellular calcium flux at 0.3 uM pretreated for 15 mins followed by trypsin addition by Fluo-8 dye based fluorescence assay relative to control; format: functional, cell-based; set-up: scale not given: the % may be the effect or the level left

Sequence of Amyloid-beta precursor protein (P05067 whole entry): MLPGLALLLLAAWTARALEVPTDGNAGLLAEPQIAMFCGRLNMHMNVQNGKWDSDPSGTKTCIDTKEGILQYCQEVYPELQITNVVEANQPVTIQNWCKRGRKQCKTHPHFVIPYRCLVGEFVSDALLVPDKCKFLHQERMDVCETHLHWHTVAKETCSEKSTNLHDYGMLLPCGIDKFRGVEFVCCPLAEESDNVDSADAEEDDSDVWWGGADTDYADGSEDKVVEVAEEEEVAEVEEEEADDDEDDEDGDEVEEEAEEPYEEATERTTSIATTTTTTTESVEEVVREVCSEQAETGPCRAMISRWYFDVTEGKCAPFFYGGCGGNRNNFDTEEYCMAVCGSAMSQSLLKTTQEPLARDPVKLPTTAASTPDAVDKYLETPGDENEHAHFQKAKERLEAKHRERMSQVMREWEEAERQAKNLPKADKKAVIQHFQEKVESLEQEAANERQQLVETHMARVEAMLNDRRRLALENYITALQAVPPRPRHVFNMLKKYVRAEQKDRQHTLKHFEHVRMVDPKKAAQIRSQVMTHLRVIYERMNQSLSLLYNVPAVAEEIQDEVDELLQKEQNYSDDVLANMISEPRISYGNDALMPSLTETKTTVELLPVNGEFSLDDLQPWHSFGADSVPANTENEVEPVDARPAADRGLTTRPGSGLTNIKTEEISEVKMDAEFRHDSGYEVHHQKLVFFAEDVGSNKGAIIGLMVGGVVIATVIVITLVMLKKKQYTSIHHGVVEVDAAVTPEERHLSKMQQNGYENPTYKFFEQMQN

Row | SMILES | solubility kinetic [2] | pIC50 (HepG2) | remaining at 0.5 h, 1 µM [3] | also measured
1 | CCCc1cc(F)ccc1[C@H](O)c1ncc[nH]1 |  |  |  | pIC50 [1]: 5.38
2 | COc1ccc(CC[C@H](O)C[C@H](O)c2cc(-c3ccccc3)on2)cc1 | 25 µM (≈ 8.84 µg/mL) | < 4.00 | 33% | 
3 | COc1ccc(-c2cc([C@@H](O)C[C@@H](O)CCc3ccc(Cl)cc3)no2)cc1 | 12 µM (≈ 4.65 µg/mL) | < 4.00 | < 20% | 
4 | COc1cccc(CC[C@H](O)C[C@@H](O)c2cc(-c3ccccc3)on2)c1 | 25 µM (≈ 8.84 µg/mL) | < 4.00 | < 20% | 
5 | COc1cc(/C=C/c2cc(/C=C/c3ccc(O)c(OC)c3)on2)ccc1O |  |  |  | pIC50 [4]: 6.86
6 | COc1cc(/C=C/C(=O)CC(=O)/C=C/c2ccc(O)c(OC)c2)ccc1O [CURCUMIN] | 3 µM (≈ 1.11 µg/mL) | 5.00 | 21% | Papp B→A at 1.5 h, 5 µM [5]: < 0.5 ×10⁻⁶ cm/s; Papp A→B at 1.5 h, 5 µM [6]: < 0.5 ×10⁻⁶ cm/s
7 | CC[C@H](C)[C@H](NC(=O)[C@H](CC1CCCCC1)NC(=O)c1ccno1)C(=O)N1CCC2(CCc3ccccc32)CC1 |  |  |  | inhibition [7]: 42%
8 | O[C@@H](CCc1ccc(F)cc1)C[C@@H](O)c1cc(-c2ccccc2)on1 | 25 µM (≈ 8.53 µg/mL) | < 4.00 | 73% | Activity [8]: 100%; Activity [9]: 65 to 70%; inhibition [10]: 70%; Papp B→A at 1.5 h, 5 µM [5]: 5 ×10⁻⁶ cm/s; Activity [11]: 100%; Papp A→B at 1.5 h, 5 µM [6]: 6.3 ×10⁻⁶ cm/s
9 | COc1ccc(CC[C@H](O)C[C@@H](O)c2cc(-c3ccccc3)on2)cc1 | 25 µM (≈ 8.84 µg/mL) | < 4.00 | 32% | 
10 | C[C@@H](C1CCCCC1)n1c(-c2cc3c(cc2Br)OCO3)nc2cc(C(=O)Nc3ccc(C#N)cc3)ccc21 |  |  |  | pIC50 [1]: 5.18
11 | COc1ccc(CC[C@H](O)C[C@H](O)c2cc(-c3ccc(OC)cc3)on2)cc1 | 12 µM (≈ 4.6 µg/mL) | < 4.00 | < 20% | 
12 | O[C@@H](CCc1ccc(F)cc1)C[C@H](O)c1cc(-c2ccccc2)on1 | 25 µM (≈ 8.53 µg/mL) | < 4.00 | 84% | Activity [8]: 60 to 65%; Activity [9]: 43 to 48%; Activity [12]: 90 to 95%; Activity [13]: 95 to 100%; pIC50 [14]: 5.22; inhibition [10]: 80%; Activity [15]: 15 to 20%; Papp B→A at 1.5 h, 5 µM [5]: 5.8 ×10⁻⁶ cm/s; Activity [11]: 74 to 78%; Activity [16]: 80 to 85%; Papp A→B at 1.5 h, 5 µM [6]: 7.4 ×10⁻⁶ cm/s
